According to ChEMBL document CHEMBL1201862, “PubChem BioAssay data set” (2004):
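Five concentrations, 48 hours, 96-well plates. Abbreviation: GI50, concentration required for 50% inhibition of growth.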 Active and inactive are the calls of the source. Rule as the data show it: active = GI50 up to about 1.1 µM and inactive = higher. Square brackets hold non-standard residues; d marks the D form. Peptide text beside a SMILES is read from it. * marks the point of attachment. ξ: configuration not given here. ξW = NC(Cc1c[nH]c2ccccc12)C(=O)O; X29 = O=C(O)[C@H]1CCC[C@H]1N*; ξF = NC(Cc1ccccc1)C(=O)O; Boc = CC(C)(C)OC(=O)*; ξK = NCCCCC(N)C(=O)O; ξT = CC(O)C(N)C(=O)O; tBu = CC(C)(C)*

Experiments:
Experiment in all cases: DTP human tumour cell line panel, 48 h
PC-3 = tested on: PC-3
K562 = tested on: K562
EKVX = tested on: EKVX
U-251 = tested on: U-251
786-0 = tested on: 786-0
UACC-257 = tested on: UACC-257
HCT-116 = tested on: HCT-116
CAKI-1 = tested on: CAKI-1
SF-268 = tested on: SF-268
SK-MEL-2 = tested on: SK-MEL-2
ACHN = tested on: ACHN
OVCAR-4 = tested on: OVCAR-4
CCRF-CEM = tested on: CCRF-CEM
HL-60 = tested on: HL-60
SW-620 = tested on: SW-620
HCT-15 = tested on: HCT-15
HT-29 = tested on: HT-29
T47D = tested on: T47D
Malme-3M = tested on: Malme-3M
SNB-19 = tested on: SNB-19
RPMI-8226 = tested on: RPMI-8226
OVCAR-5 = tested on: OVCAR-5
TK-10 = tested on: TK-10
OVCAR-3 = tested on: OVCAR-3
A549 = tested on: A549
SK-OV-3 = tested on: SK-OV-3
UACC-62 = tested on: UACC-62
HCC 2998 = tested on: HCC 2998
SN12C = tested on: SN12C
Hs-578T = tested on: Hs-578T
COLO 205 = tested on: COLO 205
NCI-H460 = tested on: NCI-H460
SF-295 = tested on: SF-295
NCI/ADR-RES = tested on: NCI/ADR-RES
IGROV-1 = tested on: IGROV-1
MCF7 = tested on: MCF7
UO-31 = tested on: UO-31
KM12 = tested on: KM12
NCI-H23 = tested on: NCI-H23
SR = tested on: SR
NCI-H522 = tested on: NCI-H522
MOLT-4 = tested on: MOLT-4
HOP-62 = tested on: HOP-62
MDA-MB-435 = tested on: MDA-MB-435
M14 = tested on: M14
HOP-92 = tested on: HOP-92
MDA-N = tested on: MDA-N
SK-MEL-5 = tested on: SK-MEL-5
MDA-MB-231 = tested on: MDA-MB-231
SK-MEL-28 = tested on: SK-MEL-28
DU-145 = tested on: DU-145
OVCAR-8 = tested on: OVCAR-8
LOX IMVI = tested on: LOX IMVI
SNB-75 = tested on: SNB-75
SF-539 = tested on: SF-539
RXF 393 = tested on: RXF 393
NCI-H226 = tested on: NCI-H226

Measured: GI50

O=c1[nH]c(=O)n(COCCO)cc1-c1ccccc1
inactive: PC-3 > 100 µM | K562 > 100 µM | EKVX > 100 µM | U-251 > 100 µM | 786-0 > 100 µM | UACC-257 > 100 µM | HCT-116 > 100 µM | CAKI-1 > 100 µM | SF-268 > 100 µM | SK-MEL-2 > 100 µM | ACHN > 100 µM | OVCAR-4 > 100 µM | CCRF-CEM > 100 µM | HL-60 > 100 µM | SW-620 > 100 µM | HT-29 > 100 µM | T47D > 100 µM | Malme-3M > 100 µM | SNB-19 > 100 µM | RPMI-8226 > 100 µM | OVCAR-5 > 100 µM | TK-10 > 100 µM | OVCAR-3 > 100 µM | A549 > 100 µM | SK-OV-3 > 100 µM | UACC-62 > 100 µM | HCC 2998 > 100 µM | SN12C > 100 µM | Hs-578T > 100 µM | COLO 205 > 100 µM | NCI-H460 > 100 µM | SF-295 > 100 µM | NCI/ADR-RES > 100 µM | IGROV-1 > 100 µM | MCF7 > 100 µM | UO-31 > 100 µM | KM12 > 100 µM | NCI-H23 > 100 µM | SR > 100 µM | NCI-H522 > 100 µM | MOLT-4 > 100 µM | HOP-62 > 100 µM | MDA-MB-435 > 100 µM | M14 > 100 µM | HOP-92 > 100 µM | MDA-N > 100 µM | SK-MEL-5 > 100 µM | MDA-MB-231 > 100 µM | SK-MEL-28 > 100 µM | DU-145 > 100 µM | OVCAR-8 > 100 µM | LOX IMVI > 100 µM
> 100 µM: HCT-15

CC(OC(C)(C)C)C(NC(=O)C(CCCCNC(=O)OC(C)(C)C)NC(=O)C(Cc1c[nH]c2ccccc12)NC(=O)C(N)Cc1ccccc1)C(=O)NC(Cc1ccccc1)C(=O)N[C@@H]1CCC[C@@H]1C(=O)O (some centres undefined) (H-[ξF][ξW][ξK](Boc)[ξT](tBu)[ξF]-X29)
> 10 µM: HCT-15
inactive: PC-3 45.6 µM | K562 51.6 µM | EKVX > 100 µM | SNB-75 59.6 µM | U-251 24.3 µM | 786-0 > 100 µM | UACC-257 > 100 µM | SF-539 19.4 µM | HCT-116 39.5 µM | CAKI-1 > 100 µM | SF-268 44.8 µM | SK-MEL-2 16.7 µM | ACHN > 100 µM | OVCAR-4 71.4 µM | CCRF-CEM 36.2 µM | HL-60 29 µM | SW-620 47.1 µM | HT-29 29.6 µM | T47D 33.8 µM | Malme-3M 40 µM | SNB-19 33.6 µM | RXF 393 > 100 µM | RPMI-8226 35.2 µM | OVCAR-5 23.2 µM | OVCAR-3 37.1 µM | A549 > 100 µM | SK-OV-3 38.8 µM | UACC-62 33.4 µM | HCC 2998 19.7 µM | SN12C 28.2 µM | NCI-H226 28.5 µM | Hs-578T 19.9 µM | COLO 205 27.4 µM | NCI-H460 > 100 µM | SF-295 > 100 µM | NCI/ADR-RES > 100 µM | IGROV-1 51.4 µM | MCF7 27 µM | UO-31 > 100 µM | KM12 19.4 µM | NCI-H23 34 µM | SR 35.5 µM | NCI-H522 20.7 µM | MOLT-4 41.6 µM | HOP-62 > 100 µM | MDA-MB-435 37.2 µM | M14 > 100 µM | HOP-92 30.3 µM | MDA-N 52.1 µM | SK-MEL-5 11.1 µM | MDA-MB-231 38.6 µM | SK-MEL-28 75.5 µM | DU-145 46.2 µM | OVCAR-8 > 100 µM | LOX IMVI 20.8 µM
